Reference: patent publication US9067983B2, “Anti-inflammatory antibodies and uses therefor” (DecImmune Therapeutics, Inc., priority 2009, dated 2015)
No end group written: not given here.

Test system: RAG-1-/- mice
Assay: human IgM-mediated myocardial injury in RAG-1-/- mice (1 h LAD occlusion, 24 h reperfusion)
Format: in vivo, mouse
Conditions: 400 μg hIgM i.v. with 200 μg N2 peptide or 150 μg F(ab')2, 15 min prior to occlusion; FIG. 4
Description: Prior to occlusion (15 min), 400 μg of pooled individual hIgM from 10 donors was injected i.v. into the mice with either saline or 200 μg of N2 peptide. Myocardial sections were stained with Evans blue and TTC. Myocardial infarct size is expressed as a percentage infarct of the area at risk (AAR) of the left ventricle. (B and C) RAG-1−/− mice were treated as in (A) and analyzed for hIgM deposition (B) or serum troponin-I levels (C). (D) RAG-1−/− mice were subjected to 1 h LAD occlusion and 24 h reperfusion. Prior to occlusion (15 min), 400 μg hIgM was injected i.v. into the mice with either saline or 150 μg of anti-N2 F(ab′)2 antibody (21G6) and myocardial sections were analyzed as in (A). (E) RAG-1−/− mice were treated as in (D) and analyzed for hIgM deposition. In all panels, statistical significance was evaluated by Student's t test.

Substance: Ac-LMKNMDPLNDNV (listed as Mus sp.) [N2 peptide, self-peptide, amino acids 592-603 of Mouse NMHC-IIB]
- human IgM-mediated injury (infarct size, hIgM deposition, serum troponin-I): block human IgM-mediated injury
